Measured values taken from paper PMC9851200, “Multiparameter phenotypic screening for endogenous TFEB and TFE3 translocation identifies novel chemical series modulating lysosome function” (Autophagy, 2022).
Read-outs that look alike come from different tables or passages of the source.

What was measured:
Assay in all cases: biochemical
Assay type in all cases: binding
[1] = target: cellular kinases of SH-SY5Y cells (Homo sapiens, UniProt O43318); settings: 2µM; SH-SY5Y cells; Labeling Site Lys2; DLKPPNLLLVAGGTVLK; read-out: KiNativ in-cell binding, % Inhibition, MAP3K7
Source text: (§1) As KINOMEscan is an in vitro assay, and as different cell types have variable kinase expression profiles we sought to determine the kinase binding profile in our SH-SY5Y TFEB-relocalization cell model. […] Bound kinases were pulled down and analyzed by mass spectrometry to determine the in situ kinase binding profile for each compound.

[2] = target: cellular kinases of SH-SY5Y cells (Homo sapiens, UniProt P78368); settings: 2µM; SH-SY5Y cells; Labeling Site Lys2; DVKPENFLVGRPGTK; read-out: KiNativ in-cell binding, % Inhibition, CSNK1G2/CK1g2
Source text: as §1

[3] = target: T1, cellular kinases of SH-SY5Y cells (Homo sapiens, UniProt Q13523); settings: 2µM; SH-SY5Y cells; Labeling Site Lys2; CNILHADIKPDNILVNESK; read-out: KiNativ in-cell binding, % Inhibition, PRPF4B
T1 construct: endogenous in cells; host or cells: SH-SY5Y
T1 sequence (Q13523 whole entry): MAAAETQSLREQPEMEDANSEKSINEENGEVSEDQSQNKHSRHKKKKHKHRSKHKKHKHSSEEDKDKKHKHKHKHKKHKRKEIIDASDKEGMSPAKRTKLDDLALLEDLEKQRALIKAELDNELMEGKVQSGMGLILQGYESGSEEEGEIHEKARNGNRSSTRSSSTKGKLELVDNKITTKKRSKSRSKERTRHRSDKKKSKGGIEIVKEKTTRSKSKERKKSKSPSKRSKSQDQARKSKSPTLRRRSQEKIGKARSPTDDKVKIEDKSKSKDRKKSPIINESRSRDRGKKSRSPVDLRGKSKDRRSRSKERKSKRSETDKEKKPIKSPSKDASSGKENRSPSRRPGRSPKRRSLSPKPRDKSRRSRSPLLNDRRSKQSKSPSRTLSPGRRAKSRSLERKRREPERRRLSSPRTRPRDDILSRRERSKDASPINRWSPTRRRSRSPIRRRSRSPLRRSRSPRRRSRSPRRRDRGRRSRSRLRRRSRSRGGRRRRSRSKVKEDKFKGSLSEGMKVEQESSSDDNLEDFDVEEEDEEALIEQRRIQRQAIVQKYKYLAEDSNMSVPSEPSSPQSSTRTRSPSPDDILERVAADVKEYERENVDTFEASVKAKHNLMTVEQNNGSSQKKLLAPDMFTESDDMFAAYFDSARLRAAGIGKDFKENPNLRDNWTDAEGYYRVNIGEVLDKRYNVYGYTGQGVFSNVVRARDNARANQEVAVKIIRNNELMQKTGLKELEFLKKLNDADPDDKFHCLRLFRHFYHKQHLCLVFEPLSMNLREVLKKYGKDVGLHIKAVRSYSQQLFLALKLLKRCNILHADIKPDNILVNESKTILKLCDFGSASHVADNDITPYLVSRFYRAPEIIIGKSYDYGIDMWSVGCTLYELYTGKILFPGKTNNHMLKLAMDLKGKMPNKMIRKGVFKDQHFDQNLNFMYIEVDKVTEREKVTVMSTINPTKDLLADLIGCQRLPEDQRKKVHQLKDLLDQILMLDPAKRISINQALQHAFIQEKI
Source text: as §1

[4] = target: cellular kinases of SH-SY5Y cells (Homo sapiens, UniProt O14757); settings: 2µM; SH-SY5Y cells; Labeling Site Lys2; DIKPENLLLDER; read-out: KiNativ in-cell binding, % Inhibition, CHEK1/CHK1
Chain of cellular kinases of SH-SY5Y cells (Homo sapiens, UniProt O14757) (O14757 whole entry): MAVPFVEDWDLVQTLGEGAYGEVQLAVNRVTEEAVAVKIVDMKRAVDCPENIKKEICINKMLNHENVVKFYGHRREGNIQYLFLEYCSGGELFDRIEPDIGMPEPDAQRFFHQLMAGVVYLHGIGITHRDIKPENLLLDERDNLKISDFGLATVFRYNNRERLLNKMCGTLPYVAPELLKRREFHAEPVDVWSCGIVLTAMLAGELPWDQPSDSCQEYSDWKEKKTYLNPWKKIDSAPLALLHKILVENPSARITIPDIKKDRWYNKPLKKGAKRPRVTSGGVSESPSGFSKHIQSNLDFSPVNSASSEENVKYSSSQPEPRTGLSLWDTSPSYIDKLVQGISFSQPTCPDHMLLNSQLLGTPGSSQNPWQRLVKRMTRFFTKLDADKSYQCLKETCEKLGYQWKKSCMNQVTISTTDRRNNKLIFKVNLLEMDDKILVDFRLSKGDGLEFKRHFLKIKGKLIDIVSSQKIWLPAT
Source text: as §1

[5] = target: T2, cellular kinases of SH-SY5Y cells (Homo sapiens, UniProt O15021); settings: 2µM; SH-SY5Y cells; Labeling Site Lys2; DLKPDNLLVTSMGHIK; read-out: KiNativ in-cell binding, % Inhibition, MAST4
T2 construct: endogenous in cells; host or cells: SH-SY5Y
Source text: as §1

[6] = target: T3, cellular kinases of SH-SY5Y cells (Homo sapiens, UniProt Q9Y2I7); settings: 2µM; SH-SY5Y cells; Labeling Site ATP; GGKSGAAFYATEDDRFILK; read-out: KiNativ in-cell binding, % Inhibition, PIKFYVE
T3 construct: endogenous in cells; host or cells: SH-SY5Y
Source text: as §1

[7] = target: T4, cellular kinases of SH-SY5Y cells (Homo sapiens, UniProt Q15418); settings: 2µM, SH-SY5Y cells
T4 construct: endogenous in cells; host or cells: SH-SY5Y
T4 sequence (Q15418 whole entry): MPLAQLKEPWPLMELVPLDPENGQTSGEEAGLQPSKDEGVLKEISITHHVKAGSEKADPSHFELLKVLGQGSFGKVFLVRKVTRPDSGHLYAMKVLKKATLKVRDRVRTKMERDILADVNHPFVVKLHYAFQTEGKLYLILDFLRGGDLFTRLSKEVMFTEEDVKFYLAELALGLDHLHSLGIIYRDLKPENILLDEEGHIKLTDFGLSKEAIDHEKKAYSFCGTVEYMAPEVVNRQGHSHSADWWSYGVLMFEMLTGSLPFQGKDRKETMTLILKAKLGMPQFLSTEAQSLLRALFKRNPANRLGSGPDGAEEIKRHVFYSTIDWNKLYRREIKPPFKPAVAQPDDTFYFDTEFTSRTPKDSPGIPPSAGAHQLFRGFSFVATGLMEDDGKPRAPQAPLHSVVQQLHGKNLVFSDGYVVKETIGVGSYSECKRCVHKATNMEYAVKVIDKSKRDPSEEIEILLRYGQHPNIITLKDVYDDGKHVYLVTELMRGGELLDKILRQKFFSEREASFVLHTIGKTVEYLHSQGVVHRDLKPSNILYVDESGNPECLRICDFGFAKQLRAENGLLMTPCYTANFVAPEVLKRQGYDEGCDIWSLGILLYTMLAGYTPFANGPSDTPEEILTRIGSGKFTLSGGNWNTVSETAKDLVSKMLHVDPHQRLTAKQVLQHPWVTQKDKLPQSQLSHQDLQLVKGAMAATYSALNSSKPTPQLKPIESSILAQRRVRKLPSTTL
Source text: as §1

[8] = target: cellular kinases of SH-SY5Y cells (Homo sapiens, UniProt Q9Y6M4); settings: 2µM; SH-SY5Y cells; Labeling Site Lys2; DVKPENFLIGRPGNK; read-out: KiNativ in-cell binding, % Inhibition, CSNK1G3
Chain of cellular kinases of SH-SY5Y cells (Homo sapiens, UniProt Q9Y6M4) (Q9Y6M4 whole entry): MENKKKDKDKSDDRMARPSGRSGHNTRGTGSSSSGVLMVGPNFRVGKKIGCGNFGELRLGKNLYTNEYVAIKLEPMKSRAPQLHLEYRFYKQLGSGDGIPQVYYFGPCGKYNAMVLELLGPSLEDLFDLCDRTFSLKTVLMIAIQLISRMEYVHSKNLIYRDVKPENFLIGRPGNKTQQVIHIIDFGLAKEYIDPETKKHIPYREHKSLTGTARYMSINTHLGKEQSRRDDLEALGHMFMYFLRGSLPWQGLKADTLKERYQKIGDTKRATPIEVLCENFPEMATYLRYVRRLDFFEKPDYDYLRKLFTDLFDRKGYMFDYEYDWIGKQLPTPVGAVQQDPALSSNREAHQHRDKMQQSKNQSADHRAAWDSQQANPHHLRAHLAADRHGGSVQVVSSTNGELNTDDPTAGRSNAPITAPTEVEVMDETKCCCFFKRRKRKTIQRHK
Source text: as §1

[9] = target: cellular kinases of SH-SY5Y cells (Homo sapiens, UniProt P51812); settings: 2µM; SH-SY5Y cells; Labeling Site Lys2; DLKPSNILYVDESGNPESIR; read-out: KiNativ in-cell binding, % Inhibition, RPS6KA3/RSK2 domain2
Source text: as §1

[10] = target: cellular kinases of SH-SY5Y cells (Homo sapiens, UniProt Q99683); settings: 2µM; SH-SY5Y cells; Labeling Site Lys2; DIKGDNVLINTYSGVLK; read-out: KiNativ in-cell binding, % Inhibition, MAP3K5
Source text: as §1

[11] = target: T5, cellular kinases of SH-SY5Y cells (Homo sapiens, UniProt Q6PHR2); settings: 2µM; SH-SY5Y cells; labeling site Lys1; peptide EVVAIKCVAK
T5 construct: endogenous in cells; host or cells: SH-SY5Y
T5 sequence (Q6PHR2 whole entry): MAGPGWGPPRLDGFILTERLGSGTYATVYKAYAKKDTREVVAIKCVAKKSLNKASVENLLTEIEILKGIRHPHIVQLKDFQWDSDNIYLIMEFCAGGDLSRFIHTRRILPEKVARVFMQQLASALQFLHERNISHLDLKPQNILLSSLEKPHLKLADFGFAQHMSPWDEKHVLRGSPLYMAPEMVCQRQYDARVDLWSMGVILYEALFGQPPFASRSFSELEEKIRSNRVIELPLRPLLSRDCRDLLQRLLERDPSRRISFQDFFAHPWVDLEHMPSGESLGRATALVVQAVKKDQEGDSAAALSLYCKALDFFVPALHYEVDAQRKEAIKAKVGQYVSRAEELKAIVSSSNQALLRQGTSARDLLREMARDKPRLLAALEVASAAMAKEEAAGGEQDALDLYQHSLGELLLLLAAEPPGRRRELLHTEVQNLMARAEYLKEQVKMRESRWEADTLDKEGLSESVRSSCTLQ
Source text: as §1

[12] = target: T6, cellular kinases of SH-SY5Y cells (Homo sapiens, UniProt Q9Y2H1); settings: 2µM, SH-SY5Y cells
T6 construct: endogenous in cells; host or cells: SH-SY5Y
T6 sequence (Q9Y2H1 whole entry): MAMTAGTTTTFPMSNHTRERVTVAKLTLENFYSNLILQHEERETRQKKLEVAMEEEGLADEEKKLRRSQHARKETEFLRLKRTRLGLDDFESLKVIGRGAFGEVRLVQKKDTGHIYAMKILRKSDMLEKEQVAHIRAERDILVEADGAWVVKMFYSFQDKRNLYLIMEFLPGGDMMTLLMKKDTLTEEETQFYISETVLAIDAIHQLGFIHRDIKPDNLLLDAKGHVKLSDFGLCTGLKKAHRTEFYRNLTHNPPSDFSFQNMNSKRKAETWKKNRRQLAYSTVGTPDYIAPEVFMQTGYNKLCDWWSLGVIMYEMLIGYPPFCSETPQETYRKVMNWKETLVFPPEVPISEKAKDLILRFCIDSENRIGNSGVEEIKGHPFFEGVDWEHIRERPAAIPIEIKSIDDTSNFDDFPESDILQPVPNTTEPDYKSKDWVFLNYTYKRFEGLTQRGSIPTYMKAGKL
Source text: as §1

[13] = target: T7, cellular kinases of SH-SY5Y cells (Homo sapiens, UniProt Q96BR1); settings: 2µM; SH-SY5Y cells; Labeling Site Lys1; FYAVKVLQK; read-out: KiNativ in-cell binding, % Inhibition, SGK3
T7 construct: endogenous in cells; host or cells: SH-SY5Y
Source text: as §1

[14] = target: T8, cellular kinases of SH-SY5Y cells (Homo sapiens, UniProt Q8IVH8); settings: 2µM, SH-SY5Y cells, read-out: KiNativ in-cell binding, % Inhibition, MAP4K3
T8 construct: endogenous in cells; host or cells: SH-SY5Y
T8 sequence (Q8IVH8 whole entry): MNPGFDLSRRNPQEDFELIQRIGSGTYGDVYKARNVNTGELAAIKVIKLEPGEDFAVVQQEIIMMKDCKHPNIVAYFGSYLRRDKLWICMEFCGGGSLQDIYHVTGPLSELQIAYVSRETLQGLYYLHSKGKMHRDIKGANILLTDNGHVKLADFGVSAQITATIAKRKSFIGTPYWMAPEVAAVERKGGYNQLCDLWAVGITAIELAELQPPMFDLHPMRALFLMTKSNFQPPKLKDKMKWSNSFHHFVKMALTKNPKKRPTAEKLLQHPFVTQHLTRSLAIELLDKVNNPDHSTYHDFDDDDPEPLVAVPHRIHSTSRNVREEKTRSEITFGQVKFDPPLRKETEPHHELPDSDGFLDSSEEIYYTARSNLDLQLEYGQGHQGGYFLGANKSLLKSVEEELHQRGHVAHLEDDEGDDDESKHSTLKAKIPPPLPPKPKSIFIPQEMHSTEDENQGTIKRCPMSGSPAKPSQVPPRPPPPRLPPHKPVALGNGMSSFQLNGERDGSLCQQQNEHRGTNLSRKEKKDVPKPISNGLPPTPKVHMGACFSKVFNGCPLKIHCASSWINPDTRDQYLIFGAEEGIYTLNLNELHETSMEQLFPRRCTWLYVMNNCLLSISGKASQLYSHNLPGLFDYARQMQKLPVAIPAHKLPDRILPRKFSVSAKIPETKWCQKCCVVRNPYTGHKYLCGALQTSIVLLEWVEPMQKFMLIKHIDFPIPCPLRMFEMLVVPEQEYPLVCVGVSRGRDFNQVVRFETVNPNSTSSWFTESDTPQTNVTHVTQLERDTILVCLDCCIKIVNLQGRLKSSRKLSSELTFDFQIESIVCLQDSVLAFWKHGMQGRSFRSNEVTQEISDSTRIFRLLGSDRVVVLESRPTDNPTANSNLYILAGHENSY
Source text: as §1

[15] = target: T9, cellular kinases of SH-SY5Y cells (Homo sapiens, UniProt Q12851); settings: 2µM; SH-SY5Y cells; Labeling Site Lys2; DIKGANLLLTLQGDVK; read-out: KiNativ in-cell binding, % Inhibition, GCK
T9 construct: endogenous in cells; host or cells: SH-SY5Y
Source text: as §1

[16] = target: cellular kinases of SH-SY5Y cells (Homo sapiens, UniProt P68400); settings: 2µM; SH-SY5Y cells; labeling site Protein Kinase Domain; peptide GGPNIITLADIVKDPVSR
Source text: as §1

[17] = target: T10, cellular kinases of SH-SY5Y cells (Homo sapiens, UniProt Q13177); settings: 2µM; SH-SY5Y cells; Labeling Site Other; KNPQAVLDVLKFYDSNTVK; read-out: KiNativ in-cell binding, % Inhibition, PAK2
T10 construct: endogenous in cells; host or cells: SH-SY5Y
T10 sequence (Q13177 whole entry): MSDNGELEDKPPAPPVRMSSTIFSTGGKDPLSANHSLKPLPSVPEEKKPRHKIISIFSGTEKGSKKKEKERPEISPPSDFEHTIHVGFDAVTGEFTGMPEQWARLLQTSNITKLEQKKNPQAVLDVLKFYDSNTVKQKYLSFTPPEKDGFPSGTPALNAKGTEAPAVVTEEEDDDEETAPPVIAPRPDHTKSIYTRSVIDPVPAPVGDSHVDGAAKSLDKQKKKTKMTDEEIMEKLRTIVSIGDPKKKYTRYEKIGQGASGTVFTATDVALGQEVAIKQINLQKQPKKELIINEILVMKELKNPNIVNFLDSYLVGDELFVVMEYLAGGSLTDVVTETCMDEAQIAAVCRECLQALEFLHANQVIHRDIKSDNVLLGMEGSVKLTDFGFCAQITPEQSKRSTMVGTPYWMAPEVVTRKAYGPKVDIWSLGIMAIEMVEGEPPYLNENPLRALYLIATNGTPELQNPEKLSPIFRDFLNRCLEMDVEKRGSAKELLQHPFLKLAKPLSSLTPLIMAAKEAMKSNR
Source text: as §1

## Cc1cccc(-c2nc(Nc3ccc4ncsc4c3)c3ccccc3n2)n1 [NK140]
[1]
  inhibition at 2 µM: 8.7%
[2]
  inhibition at 2 µM: 1.8%
[3]
  inhibition at 2 µM: 32.3%
[4]
  inhibition at 2 µM: 16%
[5]
  inhibition at 2 µM: 27.2%
[6]
  inhibition at 2 µM: 15.6%
[7]; Labeling Site Activation Loop, LTDFGLSKEAIDHEKK, read-out: KiNativ in-cell binding, % Inhibition, RPS6KA1/RSK1 domain1
  inhibition at 2 µM: -25.4%
[7]; Labeling Site Lys2, DLKPSNILYVDESGNPECLR, read-out: KiNativ in-cell binding, % Inhibition, RPS6KA1/RSK1 domain2
  inhibition at 2 µM: -53.6%
[8]
  inhibition at 2 µM: -29%
[9]
  inhibition at 2 µM: -54.8%
[10]
  inhibition at 2 µM: 18.7%
[11]
  KiNativ in-cell binding, ULK3: -25.0
[12]; Labeling Site Lys1, DTGHIYAMKILR, read-out: KiNativ in-cell binding, % Inhibition, STK38L/NDR2
  inhibition at 2 µM: -47.2%
[12]; Labeling Site Lys2, DIKPDNLLLDAK, read-out: KiNativ in-cell binding, % Inhibition, NDR2
  inhibition at 2 µM: -39.9%
[13]
  inhibition at 2 µM: 1%
[14]; Labeling Site Lys1, NVNTGELAAIKVIK
  inhibition at 2 µM: 29.8%
[14]; Labeling Site Lys2, DIKGANILLTDNGHVK
  inhibition at 2 µM: 20.5%
[15]
  inhibition at 2 µM: 11.6%
[16]
  KiNativ in-cell binding, CSNK2A1: 31.0
[17]
  inhibition at 2 µM: 42.4%
